# In ChEMBL document CHEMBL1145737 (Bioorg Med Chem Lett, 2003):
# Assays:
# [1] = system: Mus musculus; test: Median survival time was determined after oral administration (10 umol/kg) once daily for 5 days in mouse infected with influenza virus; type: functional
# [2] = target: Neuraminidase (Influenza A virus (A/Puerto Rico/8/1934(H1N1)), UniProt P03468); test: Inhibitory concentration against influenza A virus sialidase A/PR/8/34
# [3] = system: MDCK; test: Inhibitory concentration against Influenza A virus (A/Yamagata/32/89) MDCK cells determined by plaque reduction assay; type: functional, cell-based; details: Canis lupus familiaris
# Chain of Neuraminidase (Influenza A virus (A/Puerto Rico/8/1934(H1N1)), UniProt P03468) (P03468 whole entry): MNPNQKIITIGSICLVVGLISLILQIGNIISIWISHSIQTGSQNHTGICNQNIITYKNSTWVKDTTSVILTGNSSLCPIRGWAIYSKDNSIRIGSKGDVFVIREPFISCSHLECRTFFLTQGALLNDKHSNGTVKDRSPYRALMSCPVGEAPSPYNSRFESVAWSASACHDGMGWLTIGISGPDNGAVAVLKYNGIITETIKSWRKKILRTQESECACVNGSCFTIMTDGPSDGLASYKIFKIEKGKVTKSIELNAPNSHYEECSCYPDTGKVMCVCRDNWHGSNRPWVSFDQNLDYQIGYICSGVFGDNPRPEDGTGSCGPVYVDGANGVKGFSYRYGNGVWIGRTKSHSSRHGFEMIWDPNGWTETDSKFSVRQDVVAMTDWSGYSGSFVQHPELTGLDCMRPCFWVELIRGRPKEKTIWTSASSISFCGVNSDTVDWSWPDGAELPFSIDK
Compound,Survival time [1],IC50 [2],IC50 [3]
CC(=O)N[C@H]1[C@H]([C@@H]2OCC[C@@H](O)[C@H]2O)OC(C(=O)O)=C[C@@H]1NC(=N)N,10 days,28.7 nM,0.6 ng/mL
CC(=O)N[C@H]1[C@H]([C@H]2C[C@@H](O)[C@@H](O)CO2)OC(C(=O)O)=C[C@@H]1NC(=N)N,–,2780 nM,> 100 ng/mL
CC(=O)N[C@H]1[C@H]([C@H]2CCCCO2)OC(C(=O)O)=C[C@@H]1NC(=N)N,–,735 nM,> 100 ng/mL
CC(=O)N[C@H]1[C@H]([C@@H]2C[C@H](O)[C@H](O)CO2)OC(C(=O)O)=C[C@@H]1NC(=N)N,–,1030 nM,> 100 ng/mL
CC(=O)N[C@H]1[C@H]([C@@H]2OCC(F)(F)[C@@H](O)[C@H]2O)OC(C(=O)O)=C[C@@H]1NC(=N)N,–,27.1 nM,1.4 ng/mL
CC(=O)N[C@H]1[C@H]([C@H]2C[C@H](O)[C@H](O)CO2)OC(C(=O)O)=C[C@@H]1NC(=N)N,–,6.84 nM,> 100 ng/mL
CC(=O)N[C@H]1[C@H]([C@@H]2C[C@@H](O)[C@@H](O)CO2)OC(C(=O)O)=C[C@@H]1NC(=N)N,–,10000 nM,> 100 ng/mL
CC(=O)N[C@H]1[C@H]([C@@H]2OCCC[C@@H](O)[C@H]2O)OC(C(=O)O)=C[C@@H]1NC(=N)N,–,33.3 nM,2.2 ng/mL
CC(=O)N[C@H]1[C@H]([C@@H]2OC[C@@H](O)[C@H]2O)OC(C(=O)O)=C[C@@H]1NC(=N)N,–,17.7 nM,1.4 ng/mL
CC(=O)N[C@H]1[C@H]([C@H](O)[C@H](O)CO)OC(C(=O)O)=C[C@@H]1NC(=N)N [ZANAMIVIR],–,–,6.6 ng/mL
